Test results reported in patent publication US7901667B2, “Bridgehead labelled compounds and methods of using the same” (Mallinckrodt Inc., priority 2005, dated 2011).

What was measured:
[1] = target: T1, 5-HT1A receptors (Homo sapiens, UniProt P08908); settings: cited from earlier work
T1 sequence (P08908 1-422): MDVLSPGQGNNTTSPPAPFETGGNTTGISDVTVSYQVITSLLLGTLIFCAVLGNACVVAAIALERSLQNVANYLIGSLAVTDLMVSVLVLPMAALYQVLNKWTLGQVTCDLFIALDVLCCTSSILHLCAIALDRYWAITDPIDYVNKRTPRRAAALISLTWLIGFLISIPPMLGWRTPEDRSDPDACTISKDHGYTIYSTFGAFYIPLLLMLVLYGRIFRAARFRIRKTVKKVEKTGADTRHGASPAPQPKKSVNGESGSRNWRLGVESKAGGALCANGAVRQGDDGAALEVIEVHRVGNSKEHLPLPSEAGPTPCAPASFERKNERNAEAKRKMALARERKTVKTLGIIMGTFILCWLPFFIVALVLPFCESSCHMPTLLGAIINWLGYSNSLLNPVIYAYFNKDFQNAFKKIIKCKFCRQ

[2] = amide hydrolysis; cited from earlier work
[3] = system: α1-adrenoceptors; settings: cited from earlier work
[4] = X = Tosylate, relative to tert-Butyl, cited from earlier work; for Relative rate of hydrolysis, calc.: calculated; for Relative rate of hydrolysis, exp.: experimental
[5] = target: T2, human recombinant human 5-HT1A receptor subtype (Homo sapiens, UniProt P08908); assay: competitive binding assay with [^3H]8-OH-DPAT on membranes of HEK-293 EBNA-cells
T2 construct: purchased Perkin Elmer (Boston, USA); host or cells: HEK-293 EBNA cells (membrane suspension)
T2 sequence (P08908 1-422): T1 sequence (P08908 1-422)
Protocol: A membrane suspension from HEK-293 EBNA-cells expressing the human recombinant human 5-HT1A receptor subtype, was obtained from Perkin Elmer (Boston, USA). The protein concentration of the original suspension was 36.8 mg/mL.
Aliquots of these diluted membranes (factor 1:20) were incubated on microplates for 120 min at 37° C. in the dark. […] The incubation buffer contained 50 mM TRIS-HCl and 5 mM MgSO4 (pH to 7.4 at 25° C.). […] Non-specific binding was determined using 5-hydroxytryptamine (5-HT, serotonin) as a competitor in a concentration of 10 μM.
After the incubation period, the reaction was rapidly terminated by vacuum filtration over a GF/C glass fiber filters that were incorporated in the microplates and that were presoaked in 0.5% polyethylenimine (Sigma-Aldrich, Munich, Germany), and washed 5 times with ice-cold TRIS-HCl buffer. 25 μL of scintillation fluid (MicroScint™, Perkin Elmer, Boston, USA) were added to each well, after which the microplates were counted in a liquid scintillation counter (Topcount, Packard).
For each candidate tracer, the inhibition constant (Ki) was calculated from the […] for the 5-HT1A receptor with non-linear regression curve fitting using the computer program Graphpad Prism® (version 3.02).

[6] = at 60 min, relative to whole brain average; cited from earlier work

COc1ccccc1N1CCN(CCN(C(=O)C2CC3CCC2CC3)c2ccccn2)CC1 (stereo not drawn) [CPC-222]
affinity with regard to WAY-100635 [1]: comparable affinity
stability towards hydrolysis [2]: stable towards hydrolysis

COc1ccccc1N1CCN(CCN(C(=O)c2ccc(F)cc2)c2ccccn2)CC1 [MPPF]
affinity for the α1-adrenoceptors [3]: quite high affinity

Cc1ccc(S(=O)(=O)OC23CC4CC(CC(C4)C2)C3)cc1 [1-Adamantyl]
Relative rate of hydrolysis, calc. [4]: 10^−4
Relative rate of hydrolysis, exp. [4]: 10^−3

Cc1ccc(S(=O)(=O)OC23C4C5C6C4C2C6C53)cc1 (stereo not drawn) [Cubyl]
Relative rate of hydrolysis, calc. [4]: <10^−25
Relative rate of hydrolysis, exp. [4]: 10^−10

COc1ccccc1N1CCN(CCN(C(=O)C23C4C5C2C2C3C4C52I)c2ccccn2)CC1 (stereo not drawn) [iodocubyl-WAY]
affinity towards the human 5-HT1A (Ki) ([5]; [^3H]8-OH-DPAT 1.1 nM, 120 min at 37° C., n=4, values only in FIG. 6): subnanomolar range
rank of affinity among the bridgehead iodo WAY derivatives ([5]; iodobicyclooctyl, iodoadamantyl, iodonorbornyl and iodocubyl compared, FIG. 6): highest affinity

Cc1ccc(S(=O)(=O)OC23CCC(CC2)C3)cc1 [1-Norbornyl]
Relative rate of hydrolysis, calc. [4]: 10^−14
Relative rate of hydrolysis, exp. [4]: 10^−13

Cc1ccc(S(=O)(=O)OC23CCC(CC2)CC3)cc1 [1-Bicyclo[2.2.2]octyl]
Relative rate of hydrolysis, calc. [4]: 10^−8
Relative rate of hydrolysis, exp. [4]: 10^−7

COc1ccccc1N1CCN(CCN(C(=O)c2ccc([123I])cc2)c2ccccn2)CC1 [MPPI]
affinity for the α1-adrenoceptors [3]: quite high affinity

COc1ccccc1N1CCN(CCN(C(=O)C2CCC(F)CC2)c2ccccn2)CC1 (stereo not drawn) [FCWAY]
skull uptake of [^18F] [6]: twice the whole brain average
